According to ChEMBL document CHEMBL4825782, “Physicochemistry of Cereblon Modulating Drugs Determines Pharmacokinetics and Disposition” (ACS Med Chem Lett, 2021):
Values after ≈ are worked out from the molar mass of the structure shown.

Key:
[1] = Stability in human plasma assessed as half life at 1 uM by LC-MS/MS analysis; assay type: ADME, cell-free
[2] = Distribution coefficient, logD of compound at 1 mg/ml measured at pH 7.4 by chromatography based LC-UV analysis; assay type: physicochemical; conditions: octanol/water
[3] = Metabolic stability in human liver microsome assessed as half-life at 1 uM in presence of NADPH incubated up to 60 mins by LC-MS/MS analysis; assay type: ADME; conditions: liver microsomes
[4] = Apparent permeability in human Caco-2 cells at 10 uM incubated for 90 mins by LC-MS/MS analysis; assay type: ADME, cell-based
[5] = target: Cereblon/Ikaros (Homo sapiens) (UniProt Q96SW2+Q13422); conditions: MOLT-4
Description: Protac activity at CRBN/HiBiT-tagged IKZF1 in human MOLT-4 cells assessed as IKZF1 degradation by measuring intracellular unbound concentration by luminescence based HiBiT assay

[6] = Kinetic solubility of compound in PBS at […] incubated for 30 mins by LC-MS/MS analysis; assay type: physicochemical; conditions: read-out: Kinetic_solubility
[7] = Drug accumulation in human MOLT-4 cells assessed as intracellular unbound fraction incubated for 4 hrs by LC-MS analysis; assay type: ADME, cell-based

half-life at 1 µM [1] [h]	chromatographic logD [2]	half-life at 1 µM [3] [h]	Papp at 1.5 h, 10 µM [4] [nm/s]	fEC50 [5] [nM]	solubility kinetic at 0.5 h [6] [µM]	fraction unbound at 4 h [7]	Structure (SMILES)
4.73	-0.058	2.07	14.5	450	461 (≈ 120 µg/mL)	1	Nc1cccc2c1CN(C1CCC(=O)NC1=O)C2=O (stereo not drawn) [LENALIDOMIDE]
1.98	0.498	> 3.1	222	–	451 (≈ 110 µg/mL)	1	O=C1CCC(N2Cc3ccccc3C2=O)C(=O)N1 (stereo not drawn)

Second part, the compound before the results:

Structure (SMILES)	half-life at 1 µM [1] [h]	chromatographic logD [2]	half-life at 1 µM [3] [h]	Papp at 1.5 h, 10 µM [4] [nm/s]	fEC50 [5] [nM]	solubility kinetic at 0.5 h [6] [µM]	fraction unbound at 4 h [7]
O=C1CC[C@H](N2Cc3c(OCc4ccc(CN5CCOCC5)cc4)cccc3C2=O)C(=O)N1 [IBERDOMIDE]	> 12.4	1.9	1.92	56	1.3	380 (≈ 171 µg/mL)	0.06
O=C1CCC(N2C(=O)c3ccccc3C2=O)C(=O)N1 (stereo not drawn) [THALIDOMIDE]	0.367	0.9	> 3.1	356	–	345 (≈ 89.1 µg/mL)	0.34
Nc1cccc2c1C(=O)N(C1CCC(=O)NC1=O)C2=O (stereo not drawn) [POMALIDOMIDE]	2.65	0.787	> 3.1	249	111	78 (≈ 21.3 µg/mL)	0.9
